16 compounds from patent US20120302546A1, “NOVEL SULFAMIDES EXHIBITING NEUROPROTECTIVE ACTION AND METHODS FOR USE THEREOF” (FOX CHASE CHEMICAL DIVERSITY CENTER, INC., priority 2010, published 2012) can be followed below.

A value given as a limit tells only on which side of the number the result lay.

Experiment [1] concerns Hippocampal Cultures. The experiment is described as follows: Neuroprotection from hydrogen peroxide (oxidative stress), CFDA assay. Format: cell-based. Conditions: Rattus norvegicus, 10 μM Hydrogen Peroxide, read-out: NP from HP CFDA EC50. The source says: (§1) Cell cultures: All compounds are screened with dissociated hippocampal cultures derived from embryonic day 18 rats as the primary test system. With this preparation, primary neurons are used to test for toxicity as well as neuroprotection in a highly relevant experimental system to epilepsy. In brief, hippocampal tissue are obtained commercially through Brain Bits (Springfield, Ill.) and cultures prepared as previously described by Brewer (Brewer, G. J. Serum-free B27/neurobasal medium supports differentiated growth of neurons from the striatum, substantia nigra, septum, cerebral cortex, cerebellum and dentate gyms, J. Neurosci. Res. 1995, 42, 674-683.). The hippocampal neurons are platted at low density (10,000 cell/well) in a 96-well format and maintained in serum-free medium consisting of Neurobasal Medium supplemented with B27 and GlutaMAX (Gibco). Pre-coated poly-L-lysine coated plates are used because of the preferential adherence and survival of hippocampal neurons on this matrix support.
(§2) Potent neuroprotection is the distinguishing characteristic that separates this program's anticonvulsants from all other commercial drugs for epilepsy. The experimental details and the rationale for the implemented assays are essential in differentiating these compounds from that of others. The central objective of all neuroprotective assays was their relevancy to excitotoxicity and oxidative stress related to epilepsy. Both the amount of glutamate and hydrogen peroxide used in the assays, as well as the time of treatment and duration of the experiment, were designed to be relevant to epilepsy. Further, all time parameters employed in these studies were empirically determined to be within the limits of reversible toxic events, yet using amounts of glutamate and hydrogen peroxide that were relevant to the disease. In regard to glutamate toxicity, a critical feature was the duration of treatment of the hippocampal neurons. The rational for using a short 5 min treatment with glutamate was based on the observation of Randall and Thayer (Randall, R. D.; Thayer, S. A. Glutamate-induced calcium transient triggers calcium overload and neurotoxicity in rat hippocampal neurons, J. Neurosci. 1992, 12, 1882-1895). […] The rationale is that this intense burst of glutamate and resulting calcium overload is relevant to seizures and therefore was important data to capture in the screening assay. The amount of glutamate (30 μM) employed in our screening was based on the basal levels of glutamate observed in microdialysis measurements of hippocampus from epileptogenic patients (Cavus et al. Decreased hippocampal volume on MRI is associated with increased extracellular glutamate in epilepsy patients, Epilepsia, 2008, 49, 1358-1366.). In regard to hydrogen peroxide, the amount employed (10 μM) was detected in the hippocampus of rats after kainate-induced status epilepticus (Jarrett et. al., Mitochondrial DNA damage and impaired base excision repair during epileptogenesis, Neurobiol. Dis. 2008, 30, 130-138). To produce neural damage and death with these amounts of glutamate and hydrogen peroxide, the cultures were changed to a medium with significant depletion of antioxidant components in the defined medium supplement B-27 just prior to treatment with the compounds. This was performed to obtain a significant and reproducible toxic signal in the hippocampal neurons and because loss of antioxidant control may be a component of epileptogenesis (Waldbaum and Patel, Mitochondria, oxidative stress and temporal lobe epilepsy, Epilepsy Res. 2010 88, 23-45.; Wu et al., Mitochondrial DNA mutation-elicited oxidative stress, oxidative damage, and altered gene expression in cultured cells of patients with MERRF syndrome, Mol. Neurobiol. 2010, 41, 256-266.). Neuroprotection studies with hydrogen peroxide were conducted with cultures that were between day 12 and day 18. Studies of neuroprotection glutamate were conducted between day 19 and day 22. […]

Experiment [2] concerns Hippocampal Cultures. The experiment in a line: Neuroprotection from hydrogen peroxide (oxidative stress), propidium iodide assay. The following applies: Rattus norvegicus, 10 μM Hydrogen Peroxide, read-out: NP from HP PI EC50. Format: cell-based.
From the text: as §1, §2

The test system of experiment [3] is Hippocampal Cultures. The experiment in a line: Neuroprotection from glutamate excitotoxicity, propidium iodide cell death assay. The format is cell-based, rat. Conditions: for EC50: Rattus norvegicus, Hippocampal Cultures, read-out: NP from Glutamate PI EC50. On the procedure: Hydroxyethyl sulfamides attenuate glutamate-mediated cell death: As an example of HES compounds that prevent cell death associated with glutamate, compound II is shown to attenuate an increase in propidium iodide (PI) produced by acute treatment with glutamate in FIG. 4. For these studies, day 20 hippocampal cultures derived from E18 rats were treated for 5 min with 30 μM glutamate. Following removal of the glutamate, cultures were treated with various concentrations of compound II and the propidium iodide method for measuring cell death was conducted 24 hours after the initiation of treatment. The dotted line labeled “control” represents the mean PI value for control culture receiving no treatment. The dotted line labeled “carisbamate” represents the mean PI value for the reference compound carisbamate, a putative neuroprotective anticonvulsant. The amount of carisbamate used was 100 μM and this concentration had the maximally observed efficacy for this compound. RFU is an abbreviation for relative fluorescent units. Day 15 is the number of days that the cultures were maintained in vitro before conducting the experiment.
as §1
(§3) Carboxyfluorescein (CFDA) was used a vital stain for all cell toxicity and neuroprotection studies. With the use of the CytoFluor fluorimeter, the CFDA assay was employed to assess the viability of neurons. CFDA is a dye that becomes fluorescent upon cell entry and cleavage by cytosolic esterases (Petroski, R. E.; Geller, H. M Selective labeling of embryonic neurons cultures on astrocyte monolayers with 5(6)-carboxyfluorescein diacetate (CFDA). J. Neurosci. Methods 1994, 52, 23-32.). Neuronal specificity is obtained relative to astrocytes because the cleaved dye is extruded extracellularly by glia with time, while dye in neurons remains intracellular. […] To further assess the culture responses, a propidium iodide method was used as previously described (Sarafian, T. A.; Kouyoumjian, S.; Tashkin, D.; Roth, M. D. Synergistic cytotoxicity of 9-tetrahydrocannabianol and butylated hydroxyanisole, Tox. Letters, 2002. 133, 171-179.) to measure the number of dead cells. Propidium iodide becomes fluorescent when binding to the DNA of dead cells. Cultures were treated on day 2 with the test agent and then the two assays were conducted after a […] test period. For all assays, a 96-well format was used. For the screen, log concentration-effect studies were conducted from 10 nM to 1 mM with 8 replications. The duration of the test period was five days. Cultures were given a complete change of medium prior to the initiation of the treatment period.
Potent neuroprotection is the distinguishing characteristic that separates this program's anticonvulsants from all other commercial drugs for epilepsy. The experimental details and the rationale for the implemented assays are essential in differentiating these compounds from that of others. […]

Experiment [4] concerns Hippocampal Cultures. The experiment is described as follows: Neuroprotection from glutamate excitotoxicity, CFDA neuronal viability assay. The format is cell-based, rat. The following applies: for EC50: Rattus norvegicus, 30 μM glutamate, Hippocampal Cultures, read-out: NP from Glutamate CFDA EC50. On the procedure:
Pharmacology: Hydroxyethyl sulfamides attenuate glutamate-mediated neuronal viability. As an example, compound II, shown above, is shown to attenuate a decrease in carboxyfluorescein diacetate (CFDA) produced by acute treatment with glutamate in FIG. 1. For these studies, day 20 hippocampal cultures derived from E18 rats were treated for 5 min with 30 μM glutamate. Following removal of the glutamate, cultures were treated with various concentrations of compound II and the CFDA neuronal viability assay was conducted 24 hours after the initiation of treatment. The dotted line labeled “control” represents the mean CFDA value for control culture receiving no treatment. The dotted line labeled “carisbamate” represents the mean CFDA value for the reference compound carisbamate, a putative neuroprotective, anticonvulsant. For the CFDA measurements, RFU is the abbreviation for relative fluorescent units. The reference anticonvulsant compound carisbamate was tested at 100 μM, as lower concentrations were ineffective.
as §1, §3
Potent neuroprotection is the distinguishing characteristic that separates this program's anticonvulsants from all other commercial drugs for epilepsy. The experimental details and the rationale for the implemented assays are essential in differentiating these compounds from that of others. The central objective of all neuroprotective assays was their relevancy to excitotoxicity and oxidative stress related to epilepsy. […]

The mark [5] stands for this setting: day 20 hippocampal cultures, 5 min 30 μM glutamate, CFDA assay 24 hours after initiation of treatment (FIG. 1-3).

Consider `NS(=O)(=O)NCC(O)c1ccccc1F` (stereo in doubt) [Example 10, (S)-2-(2-Fluorophenyl)-2-hydroxyethylsulfamide], for which the EC50 (commonly the midpoint of the concentration-response curve) in experiment [1] amounted to 1 µM; in experiment [2], 0.1 µM; in experiment [3] (30 μM glutamate), 0.1 µM; in experiment [4], 300 µM.
In the case of `NS(=O)(=O)NCC(O)c1ccccc1F` (stereo in doubt) [Example 11, (R)-3-(2-Fluorophenyl)-2-hydroxyethylsulfamide], the EC50 in experiment [1] and in experiment [2] was 300 µM each time.
For the compound `NS(=O)(=O)NCC(O)c1ccccc1Cl` (stereo not drawn) [Example 1, 2-(2-Chlorophenyl)-2-hydroxyethylsulfamide], the EC50 in experiment [3] (30 μM glutamate) is 100 µM; in experiment [4] it was 30 µM.
On to `NS(=O)(=O)NCC(O)c1cccc(Cl)c1` (stereo not drawn) [Example 2, 2-(3-Chlorophenyl)-2-hydroxyethylsulfamide], for which the EC50 in experiment [1] was 100 µM; in experiment [2] it was 100 µM; in experiment [3] (30 μM glutamate), > 300 µM; in experiment [4], > 300 µM.
As to `NS(=O)(=O)NCC(O)c1ccsc1` (stereo not drawn) [Example 3, 2-(thiophen-3-yl)-2-hydroxyethylsulfamide], the EC50 in experiment [1] is 30 µM; in experiment [2], 30 µM; in experiment [3] (30 μM glutamate), 30 µM; in experiment [4], > 300 µM.
On to `NS(=O)(=O)NCC(O)c1cc2ccccc2s1` (stereo not drawn) [Example 4, 2-(benzothiophen-2-yl)-2-hydroxyethylsulfamide], for which the EC50 is 100 µM in experiment [1], 30 µM in experiment [2], 10 µM in experiment [3] (30 μM glutamate) and 100 µM in experiment [4].
As to `NS(=O)(=O)NCC(O)c1cc(Cl)ccc1Cl` (stereo not drawn) [Example 5, 2-(2,5-dichlorophenyl)-2-hydroxyethylsulfamide], the EC50 in experiment [1] is > 300 µM; in experiment [2], > 300 µM; in experiment [3] (30 μM glutamate), 30 µM; in experiment [4], > 300 µM.
As for `NS(=O)(=O)NCC(O)c1ccccc1F` (stereo not drawn) [Example 6, 2-(2-fluorophenyl)-2-hydroxyethylsulfamide], the EC50 in experiment [1] worked out at 10 µM; in experiment [2], 0.01 µM; in experiment [3] (30 μM glutamate), 10 µM; in experiment [4] it was 100 µM.
In the case of `NS(=O)(=O)NCC(O)c1csc2ccccc12` (stereo not drawn) [Example 7, 2-(benzothiophen-3-yl)-2-hydroxyethylsulfamide], the EC50 in experiment [3] (30 μM glutamate) is > 300 µM; in experiment [4], 30 µM.
Take `CC(O)(CNS(N)(=O)=O)c1ccccc1Cl` (stereo not drawn) [Example 8, 2-(2-chlorophenyl)-2-methyl-2-hydroxyethylsulfamide]: the half-maximal effective concentration (EC50) in experiment [1] was 100 µM; in experiment [2], 0.1 µM; in experiment [3] (30 μM glutamate), 300 µM; in experiment [4] it was > 300 µM.
For `NS(=O)(=O)N1CC(O)(c2csc3ccccc23)C1` [Example 9, 3-Benzo[b]thiophen-3-yl-3-hydroxy-azetidine-1-sulfonamide], the EC50 in experiment [1] is > 300 µM; in experiment [2], > 300 µM; in experiment [3] (30 μM glutamate), 1 µM; in experiment [4] it was 0.1 µM.
On to `NS(=O)(=O)NC[C@@H](O)c1ccccc1Cl` [Example 12, (S)-2-(2-Chlorophenyl)-2-hydroxyethylsulfamide], for which the EC50 in experiment [1] was 30 µM; in experiment [2], > 300 µM; in experiment [3] (30 μM glutamate), 10 µM; in experiment [4], 30 µM.
For the compound `NS(=O)(=O)NC[C@H](O)c1ccccc1Cl` [Example 13, (R)-2-(2-Chlorophenyl)-2-hydroxyethylsulfamide], the EC50 in experiment [1] was 300 µM; in experiment [2], > 300 µM; in experiment [3] (30 μM glutamate), 10 µM; in experiment [4] it was 0.01 µM.
In the case of `NC(=O)OC[C@@H](O)c1ccccc1Cl` [carisbamate, reference compound], the “concentration with the maximally observed efficacy (propidium iodide)” value in experiment [3] (hippocampal cultures, 30 μM glutamate) was 100 µM. In addition, the “effect on glutamate-mediated decrease in neuronal viability (CFDA)” value (“effect on glutamate-mediated decrease” for short) in experiment [4] (concentrations lower than 100 μM) is “ineffective”.
As for `NS(=O)(=O)NCC(O)c1ccccc1Cl` (stereo not drawn) [compound II], the “effect on glutamate-mediated increase in cell death (propidium iodide)” value in experiment [3] (day 20 hippocampal cultures, 5 min 30 μM glutamate, PI 24 hours after initiation of treatment (FIG. 4)) was “attenuate”. Besides, in experiment [4] (setting [5]), the “effect on glutamate-mediated decrease” value is reported as “attenuate”.
On to `NS(=O)(=O)NCC(O)c1csc2ccccc12` (stereo not drawn) [compound IV], for which, in experiment [4] (setting [5]), the “effect on glutamate-mediated decrease” value is “efficacious”.
